Reference: patent publication US7763624B2, “Substituted pyrazolo[3,4-d]pyrimidines as ACK-1 and LCK inhibitors” (Amgen Inc., priority 2005, dated 2010)
Where two headings read alike, the source gives them in different places.

Legend:
[1] = molecular target: T1, ACK1 (Homo sapiens, UniProt Q07912); experiment: ACK1 Enzymatic Assay (PGT/autophosphorylation ELISA); assay type: biochemical
T1 construct: a fusion of an N-terminal (His)6 Tag with amino acids 117 to 489 of ACK1; (His)6 (N); made in house; host or cells: baculovirus infected Hi-5 insect cells
Protocol: IC50 values of compounds of the invention may be assessed as follows. The ACK1 kinase assay utilizes a protein expressed in baculovirus infected Hi-5 cells (a fusion of an N-terminal (His)6 Tag with amino acids 117 to 489 of ACK1) purified by affinity chromatography on a Ni-NTA column. The substrate for the reaction is ACK1 itself (autophosphorylation) and poly-Glutamic acid-Tyrosine (PGT (4:1), Sigma catalog #PO275). The PGT is coated to Nunc 96 well plates at 80 μg/mL overnight at 4° C. The morning after coating, the plates are washed twice, and […] reaction buffer (10 mM Hepes, pH 7.6; 20 mM MgCl2; 75 mM NaCl, 0.125% TWEEN20 (polyoxyethylene sorbitan monolaurate); 1 mM DTT) with 5 μM ATP are added to each well. Test compounds are added in […] DMSO, and the reaction is started by addition of […] kinase in assay buffer. The reaction proceeds for 2 h at room temperature. Next, the plates are washed four times, and the level of tyrosine phosphorylation in a given well is quantified by standard ELISA assay utilizing a phosphotyrosine antibody (PY20, Pierce).

[2] = tested on: C8 cells; experiment: ACK1 Cell Based Assay (survival under low serum, Cytotox One); conditions: read-out: ACK1 Cell-based IC50
Protocol: ACK1 Cell Based Assay The ACK1 cell based assay is designed to find inhibitors of ACK1 kinase activity which would be prime candidates for the development of anticancer drugs. […] After 20 to 24 h incubation at 37° C. and 5% CO2, cell viability is determined using the Cytotox One kit (Promega) according to the manufacturer's instructions.

[3] = molecular target: T2, LCK (Homo sapiens, UniProt P06239); experiment: LCK-Homogeneous Time Resolved Fluorescent (HTRF) Kinase Assay; assay type: biochemical
T2 construct: 15 μL of LCK KD GST (225-509) for a final volume of 40 μL; GST
Protocol: LCK-Homogeneous Time Resolved Fluorescent (HTRF) Kinase Assay
The LCK HTRF assay begins with LCK in the presence of ATP phosphorylating the biotinylated peptide Gastrin. The reaction incubates for 90 min. To quench the assay detection reagents are added which both stop the reaction by diluting out the enzyme and chelating the metals due to the presence of EDTA. Once the detection reagents are added the assay incubates for 30 min to allow for equilibration of the detection reagents.
Buffer conditions are as follows: 50 mM HEPES pH 7.5, 50 mM NaCl, 20 mM MgCl2, 5 mM MnCl2, 2 mM DTT, 0.05% BSA.
The assay is quenched and stopped with 160 μL of a detection reagent. Detection reagents are as follows: Buffer made of 50 mM Tris, pH 7.5, 100 mM NaCl, 3 mM EDTA, 0.05% BSA, 0.1% Tween20.
The assay plate is read in either a Discovery or a RubyStar.

[4] = ACK1-dependent C8 cells, 0.125% FCS, 20 to 24 h

T2 sequence (P06239 225-509): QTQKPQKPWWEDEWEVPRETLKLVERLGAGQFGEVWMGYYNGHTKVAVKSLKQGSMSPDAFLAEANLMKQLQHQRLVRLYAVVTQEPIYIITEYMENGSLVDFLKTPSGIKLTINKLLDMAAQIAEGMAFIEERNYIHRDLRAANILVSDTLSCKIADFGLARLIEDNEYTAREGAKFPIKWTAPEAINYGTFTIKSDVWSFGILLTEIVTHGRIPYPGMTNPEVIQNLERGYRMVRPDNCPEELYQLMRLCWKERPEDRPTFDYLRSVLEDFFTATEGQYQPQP
T1 sequence (Q07912 117-489): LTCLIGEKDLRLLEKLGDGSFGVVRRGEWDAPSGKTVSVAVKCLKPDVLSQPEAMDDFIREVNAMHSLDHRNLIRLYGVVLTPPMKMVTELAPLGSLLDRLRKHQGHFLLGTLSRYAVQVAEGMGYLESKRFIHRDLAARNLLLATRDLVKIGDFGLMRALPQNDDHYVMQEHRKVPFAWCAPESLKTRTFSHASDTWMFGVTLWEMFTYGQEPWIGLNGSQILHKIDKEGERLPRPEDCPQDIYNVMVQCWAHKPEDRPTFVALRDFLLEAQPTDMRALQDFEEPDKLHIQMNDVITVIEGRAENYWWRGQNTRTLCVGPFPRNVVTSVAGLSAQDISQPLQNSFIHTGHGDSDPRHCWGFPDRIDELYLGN

## (R)—N^3-(2,6-Dimethylphenyl)-1-(3-(2-(methoxymethyl)pyrrolidin-1-yl)propyl)-1H-indazole-3,6-diamine [Compound 68]
[1]
  Ki: > 0.1 µM
[2]; [4]
  IC50: > 0.1 µM
[3]
  Ki: 0.01 to 0.1 µM

## Cc1cccc(C)c1Nc1nn(CCC(C)O)c2nc(Nc3ccccc3)ncc12 (stereo not drawn) [Compound 46, 4-(3-(2,6-dimethylphenylamino)-6-(phenylamino)-1H-pyrazolo[3,4-d]pyrimidin-1-yl)butan-2-ol]
[1]
  Ki: 0.01 to 0.1 µM
[2]; [4]
  IC50: > 0.1 µM
[3]
  Ki: < 0.01 µM

## COC(C)(C)CCn1nc(Nc2c(C)cccc2C)c2ccc(Nc3ccccc3)cc21 [Compound 59]
[1]
  Ki: < 0.01 µM
[2]; [4]
  IC50: 0.01 to 0.1 µM
[3]
  Ki: < 0.01 µM

## COC(C)(C)CCn1nc(Nc2c(C)cc(F)cc2C)c2cnc(Nc3ccc(N4CCN(C)CC4)cc3)nc21 [Compound 79, N^3-(4-Fluoro-2,6-dimethyl-phenyl)-1-(3-methoxy-3-methyl-butyl)-N^6-[4-(4-methyl-piperazin-1-yl)-phenyl]-1H-pyrazolo[3,4-d]pyrimidine-3,6-diamine]
[1]
  Ki: 0.01 to 0.1 µM
[2]; [4]
  IC50: 0.01 to 0.1 µM
[3]
  Ki: < 0.01 µM

## COC(C)(C)CCn1nc(Nc2c(C)cc(C)cc2C)c2cnc(Nc3ccccc3)nc21 [Compound 76, 1-(3-Methoxy-3-methyl-butyl)-N^6-phenyl-N^3-(2,4,6-trimethyl-phenyl)-1H-pyrazolo[3,4-d]pyrimidine-3,6-diamine]
[1]
  Ki: > 0.1 µM
[2]
  IC50: > 0.1 µM
[3]
  Ki: < 0.01 µM

## COCCOc1ccc(Nc2ncc3c(Nc4c(C)cccc4C)nn(CCC(C)(C)OC)c3n2)cc1 [Compound 54, N^3-(2,6-Dimethyl-phenyl)-N-6-[4-(2-methoxy-ethoxy)-phenyl]-1-(3-methoxy-3-methyl-butyl)-1H-pyrazolo[3,4-d]pyrimidine-3,6-diamine]
[1]
  Ki: 0.01 to 0.1 µM
[2]; [4]
  IC50: > 0.1 µM
[3]
  Ki: < 0.01 µM

## COC[C@H]1CCCN1CCCn1nc(Nc2c(C)cccc2C)c2ccc(Nc3ccc(N4CCNCC4)cc3)cc21 [Compound 67, (R)—N^3-(2,6-Dimethylphenyl)-1-(3-(2-(methoxymethyl)pyrrolidin-1-yl)propyl)-N^6-(4-piperazin-1-yl)phenyl-1H-indazole-3,6-diamine]
[1]
  Ki: < 0.01 µM
[2]; [4]
  IC50: 0.01 to 0.1 µM
[3]
  Ki: < 0.01 µM

## COC(C)(C)CCn1nc(Nc2c(Cl)cccc2Cl)c2ccc(Nc3ccc(N4CCNCC4)cc3)cc21 [Compound 84]
[1]
  Ki: 0.01 to 0.1 µM
[2]; [4]
  IC50: 0.01 to 0.1 µM
[3]
  Ki: < 0.01 µM

## (R)—N^3-(2,6-Dimethylphenyl)-N^6-(4-fluorophenyl)-1-(3-(2-(methoxymethyl)pyrrolidin-1-yl)propyl)-1H-indazole-3,6-diamine [Compound 65]
[1]
  Ki: > 0.1 µM
[2]; [4]
  IC50: > 0.1 µM
[3]
  Ki: < 0.01 µM

## CCN(CC)CC(O)CCn1nc(Nc2c(C)cccc2C)c2cnc(Nc3ccccc3)nc21 (stereo not drawn) [Compound 44, 1-(diethylamino)-4-(3-(2,6-dimethylphenylamino)-6-(phenylamino)-1H-pyrazolo[3,4-d]pyrimidin-1-yl)butan-2-ol]
[1]
  Ki: > 0.1 µM
[2]; [4]
  IC50: > 0.1 µM
[3]
  Ki: < 0.01 µM

## Cc1cccc(C)c1Nc1nn(CCCN2CCCC2)c2nc(Nc3ccccc3)ncc12 [Compound 41, N^3-(2,6-dimethylphenyl)-N^6-phenyl-1-(3-(pyrrolidin-1-yl)propyl)-1H-pyrazolo[3,4-d]pyrimidine-3,6-diamine]
[1]
  Ki: 0.01 to 0.1 µM
[2]; [4]
  IC50: > 0.1 µM
[3]
  Ki: < 0.01 µM

## Cc1cccc(C)c1Nc1nn(CCC(O)CN2CCCC2)c2nc(Nc3ccccc3)ncc12 (stereo not drawn) [Compound 45, 4-(3-(2,6-dimethylphenylamino)-6-(phenylamino)-1H-pyrazolo[3,4-d]pyrimidin-1-yl)-1-(pyrrolidin-1-yl)butan-2-ol]
[1]
  Ki: > 0.1 µM
[2]; [4]
  IC50: > 0.1 µM
[3]
  Ki: < 0.01 µM
